Test results published in paper PMC9182141, “Assay Development and Identification of the First Plasmodium falciparum 7,8-dihydro-6-hydroxymethylpterin-pyrophosphokinase Inhibitors” (Molecules, 2022).

Key:
[1] = test system: KB cell line (human epithelial carcinoma cells); assay: Cytotoxicity, sulforhodamine B assay, KB cells; type: cell-based; details: 72 h, when no IC50 could be determined, highest tested concentration noted
[2] = test system: Vero cell line (African green monkey kidney cells); assay: Cytotoxicity, sulforhodamine B assay, Vero cells; type: cell-based; details: Chlorocebus sabaeus, 72 h, when no IC50 could be determined, highest tested concentration noted
[3] = test system: Plasmodium falciparum V1/S (drug resistant); assay: Antimalarial activity, [3H]-hypoxanthine incorporation assay, V1/S; type: cell-based; details: Plasmodium falciparum, P. falciparum V1/S (drug resistant); when no IC50 could be determined, highest tested concentration noted
Experimental: (§1) Finally, the various hit compounds were tested for their antimalarial activity against P. falciparum TM4/8.2 [26] and V1/S [27] strains. Parasite cultures were treated with test compounds at different concentrations, and antimalarial activity was measured using [3H]-hypoxanthine incorporation assay, according to our previously reported protocol. […] IC50 values could not be measured for other compounds. At this stage, there is no explanation for the difference in antiparasitic activity observed between TM4/8.2 and V1/S strains, and more investigations would be needed to conclude on this effect.
(§2) Compounds were tested for their antimalarial activity against P. falciparum TM4/8.2 [26] and V1/S [27] strains according to our previously reported protocol. In brief, parasite strains were maintained continuously in human erythrocytes in RPMI1640 supplemented with 25 mM HEPES pH 7.4, 0.2% NaHCO3, 40 µg/mL gentamicin and 8% human serum at 37 °C under 3% CO2. For in vitro antimalarial assay, parasite was treated with serial dilutions of the inhibitors, and parasite survival was determined using a modified microdilution radioisotope technique.

[4] = target: T1, PfHPPK-GFP (Plasmodium falciparum, UniProt Q25704); assay: KinaseGlo enzyme inhibition assay; type: biochemical; details: 1 mM compound, 10 μM HMDP and 10 μM ATP, 20 min at RT; read-out: Inhib. at 1 mM (%)
T1 sequence (Q25704 entry or part of it): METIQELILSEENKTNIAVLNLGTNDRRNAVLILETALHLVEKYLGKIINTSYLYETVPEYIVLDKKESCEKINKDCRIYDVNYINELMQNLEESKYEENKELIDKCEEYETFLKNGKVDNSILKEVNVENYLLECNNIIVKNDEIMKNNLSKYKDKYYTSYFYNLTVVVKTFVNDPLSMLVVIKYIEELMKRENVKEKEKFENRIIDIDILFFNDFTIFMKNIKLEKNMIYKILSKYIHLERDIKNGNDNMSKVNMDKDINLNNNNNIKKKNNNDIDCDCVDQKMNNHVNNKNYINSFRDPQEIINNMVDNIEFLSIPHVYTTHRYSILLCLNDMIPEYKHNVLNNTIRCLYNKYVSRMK
Experimental: For all the compounds displaying a measurable change of Tm, PfHPPK inhibition was recorded at 10 μM HMDP and ATP and 1 mM compound using the KinaseGlo assay. These conditions were chosen to be in the reported Km range for both HMDP and ATP substrates, enabling detection of both competitive and uncompetitive inhibitors. Compounds were incubated with HMDP, ATP and HPPK-GFP for 20 min at RT, followed by addition of the KinaseGlo reagent. After 10 min equilibration, luminescence was recorded, which directly reflects the quantity of ATP left in solution at the end of the reaction. Percentages of inhibition were calculated based on a DMSO positive control and a negative control lacking HPPK-GFP. Compounds structures, ΔTm and levels of inhibition appear in Table 1 and Table 2.
PfHPPK-GFP inhibition assay was carried using the KinaseGlo Plus kit (Promega, Madison, WI, USA). In a black 96-well plate were dispensed test compounds (1 μL of 50 mM DMSO stock), master mix (100 mM Tris pH 9, 10 mM β-mercapto ethanol, 10 mM MgSO4, 0.01% w/v BSA, 10 μM HMDP and 10 μM ATP). Reaction was initiated by addition of 2 μg of enzyme, reaching a total reaction volume of 50 μL, and reaction was allowed to proceed for 20 min at RT shaking at 300 rpm. Reaction was then quenched by addition of 50 μL KinaseGlo reagent and allowed to equilibrate for 10 min at RT shaking at 300 rpm. Luminescence was recorded on a Biotek Synergy H1 plate reader (Agilent, Santa Clara, CA, USA) using an integration time of 1 s per well. Percentage of inhibition was calculated related to a positive control experiment (no enzyme added) and a negative control experiment (no inhibitor added).

[5] = target: T1, PfHPPK-GFP; assay: DSF-GTP (GFP-tagged protein differential scanning fluorimetry) thermal shift; type: binding
Experimental: In a preliminary screening experiment, buffer conditions were investigated, searching for conditions that provide the largest thermal shift in the presence of 1 mM ATP. DSF curves were recorded under a total of 17 different conditions, with variations in buffer nature and pH, salts nature and concentration, effect of reducing agent, MgSO4 and glycerol.
From there, protein binding properties of the hit compounds were assessed experimentally using the developed DSF-GTP assay. A total of 54 compounds were tested, including virtual screening hits and closely related structures. According to our protocol, each compound was mixed with PfHPPK-GFP and submitted to a temperature gradient from 30 °C to 90 °C at 1 °C/min while GFP fluorescence was recorded. The first derivative of the resulting curve was used to determine the melting temperature (Tm). For each set of experiments, a negative control containing DMSO was added, and ΔTm values were calculated for each compound vs. the DMSO control. […] Two compound families were identified as the most promising by our DSF-GTP assay: 5-phenylazo-2,4-diaminopyrimidines (series 1) and phenyltriazolyl-2-amino-4-pyrimidinone (series 2). In series 2, linkers of different lengths that separate the phenyl triazolyl and the pyrimidine moieties were included.
In a typical DSF-GTP experiment, a master mix containing buffer and PfHPPK-GFP was prepared in a microcentrifuge tube, corresponding to a final protein concentration of 20 μg/mL. Ligands of interest were dispensed in low-profile 96-well plates (Bio-Rad) to 1 mM final concentration, and the master mix was dispensed to a final volume of 50 μL per well. In these conditions, DMSO content was maintained constant at 2%. The microplate was sealed with adhesive film and mixed by shaking for 2 min at 800 rpm at RT. The microplate was then submitted to a DSF run on a CFX96 RT-PCR (Bio-Rad, Hercules, CA, USA). DSF program was designed by starting with a 3 min equilibration phase at 30 °C, followed by a temperature gradient of 1 °C/min until 90 °C, recording fluorescence every 0.5 °C. Fluorescence was recorded using the FAM channel (λex = 450–490 nm, λem = 510–530 nm). Curves were fitted using the Precision Melt Analysis software (Bio-Rad).

[6] = Metabolic stability in rat liver microsomes; details: rat, liver microsomes
Experimental: (§3) Intrinsic clearance was also measured in both human and rat liver microsomes in order to assess sensitivity to metabolic degradation.
(§4) Metabolic stability of test compounds was determined in human and rat liver microsomes. The assay was adapted from a previously published method. Briefly, the test compounds were mixed with liver microsomes, and the metabolic reactions were initiated by the addition of NADPH. Acetonitrile containing an internal standard (labetalol) was added at 0, 5, 10, 30, and 60 min to stop the reactions. Samples were processed, and the remaining compounds in the reactions were detected using a LC-MS/MS. Distribution coefficient, solubility and polar surface area were predicted using Marvin software. Partition coefficient was predicted using ACD/Labs software.

[7] = test system: Plasmodium falciparum TM4/8.2 (drug sensitive); assay: Antimalarial activity, [3H]-hypoxanthine incorporation assay, TM4/8.2; type: cell-based; details: P. falciparum TM4/8.2 (drug sensitive), when no IC50 could be determined, highest tested concentration noted
Experimental: as §1, §2

[8] = Metabolic stability in human liver microsomes; details: human, liver microsomes
Experimental: as §3, §4

[9] = target: T1, PfHPPK-GFP; assay: KinaseGlo enzyme inhibition assay; type: biochemical; details: dose-response inhibition, read-out: IC50 against the enzyme
[10] = test system: PfHPPK; parameters: method as in PMID 19631695; details: substrate of monofunctional PfHPPK; cited from earlier work

SMILES	IC50 [1] [µM]	IC50 [2] [µM]	IC50 [3] [µM]	inhibition at 1000 µM [4] [%]	ΔTm at 1000 µM ([5]; read-out: ΔTm (°C)) [°C]	microsomal CLint [6] [µL/min/mg]	IC50 [7] [µM]	microsomal CLint [8] [µL/min/mg]	IC50 [9] [µM]	Tm ([5]; PfHPPK-GFP in optimal buffer in the presence of 1 mM ATP (apo form 81 °C)) [°C]	Km [10] [µM]
CCc1nc(N)[nH]c(=O)c1CCCc1cn(-c2cccc(C(=O)O)c2)nn1 [Compound 14, 2-Amino-6-ethyl-5-(3-(1-(3-(carboxy)phenyl)-1H-1,2,3-triazol-4-yl)propyl)pyrimidin-4(3H)-one]	> 50	> 50	> 50	42.8 ± 5.5	-1.2 ± 0.3	7.05	> 50	4.88	814 ± 47	–	–
Nc1ncnc2c1ncn2[C@@H]1O[C@H](COP(=O)(O)OP(=O)(O)OP(=O)(O)O)[C@@H](O)[C@H]1O [ATP]	–	–	–	–	–	–	–	–	–	80	13.2
